Test results as given in patent US20240325484A1, “COMPOSITION COMPRISING HORSE CHESTNUT EXTRACT” (ANGIOLAB, INC., priority 2021, published 2024).

Test system: RAW264.7 cells
Assay: Cytotoxicity assay (XTT, cell viability)
Conditions: 4 days, at concentrations of 2.5, 5, 10, and 25 μM (FIG. 7 to FIG. 10)
Procedure: The cells were treated with 50 μl of XTT reagent per well, then reacted for four hours. An absorbance change thereof was measured at 490 nm and 650 nm (reference wavelength) by ELISA (enzyme linked immunosorbent assay) reader (Molecular Devices, USA), and a cell viability was expressed as a percentage.

C[C@@H]1O[C@@H](Oc2c(-c3ccc(O)c(O)c3)oc3cc(O)cc(O)c3c2=O)[C@H](O)[C@H](O)[C@H]1O [quercitrin, Quercitrin]
cytotoxicity: no cytotoxicity
